Measured values published in US20260217706A1, “HETEROCYCLIC COMPOUNDS, PREPARATION METHOD THEREFOR AND USE THEREOF” (GUANGZHOU YUFAN NANTU BIOTECHNOLOGIES CO., LTD, priority 2023, published 2026).

Assays:
CBL-B protein = CBL-B protein (Homo sapiens, UniProt Q13191); experiment: CBL-B binding experiment (Streptavidin-Tb cryptate / Ligand L1 displacement); conditions: 8 nM CBL-B protein, 25° C., 60 minutes; Ki=Relative IC50/2
Outline: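 Compounds in a 10-point DMSO series met 8 nM CBL-B protein in HEPES pH 7.5/NaCl/Triton/TCEP/BSA buffer at 25° C. for 60 min. A further 60 min at room temperature preceded the luminescence read, normalised to no-protein and DMSO wells. Ki was taken as relative IC50 divided by 2.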

[1] = test system: anti-CD3 activated human PBMCs; experiment: Effect of compounds on the level of IL-2 secretion by anti-CD3 activated human PBMCs (IL-2 ELISA); format: cell-based; conditions: compound concentration at which fold change in IL-2 = 5; hPBMCs, CD3 antibody 2 μg/mL, 48 h, compound from 3 μM
Outline: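 Human PBMCs were preincubated 1 h, then exposed to compound (10 points, 3-fold from 3 μM final) with anti-CD3 at 2 μg/mL for 48 h at 37° C. Supernatant IL-2 was measured by ELISA as fold change over DMSO.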

Chain of CBL-B protein (Q13191 whole entry): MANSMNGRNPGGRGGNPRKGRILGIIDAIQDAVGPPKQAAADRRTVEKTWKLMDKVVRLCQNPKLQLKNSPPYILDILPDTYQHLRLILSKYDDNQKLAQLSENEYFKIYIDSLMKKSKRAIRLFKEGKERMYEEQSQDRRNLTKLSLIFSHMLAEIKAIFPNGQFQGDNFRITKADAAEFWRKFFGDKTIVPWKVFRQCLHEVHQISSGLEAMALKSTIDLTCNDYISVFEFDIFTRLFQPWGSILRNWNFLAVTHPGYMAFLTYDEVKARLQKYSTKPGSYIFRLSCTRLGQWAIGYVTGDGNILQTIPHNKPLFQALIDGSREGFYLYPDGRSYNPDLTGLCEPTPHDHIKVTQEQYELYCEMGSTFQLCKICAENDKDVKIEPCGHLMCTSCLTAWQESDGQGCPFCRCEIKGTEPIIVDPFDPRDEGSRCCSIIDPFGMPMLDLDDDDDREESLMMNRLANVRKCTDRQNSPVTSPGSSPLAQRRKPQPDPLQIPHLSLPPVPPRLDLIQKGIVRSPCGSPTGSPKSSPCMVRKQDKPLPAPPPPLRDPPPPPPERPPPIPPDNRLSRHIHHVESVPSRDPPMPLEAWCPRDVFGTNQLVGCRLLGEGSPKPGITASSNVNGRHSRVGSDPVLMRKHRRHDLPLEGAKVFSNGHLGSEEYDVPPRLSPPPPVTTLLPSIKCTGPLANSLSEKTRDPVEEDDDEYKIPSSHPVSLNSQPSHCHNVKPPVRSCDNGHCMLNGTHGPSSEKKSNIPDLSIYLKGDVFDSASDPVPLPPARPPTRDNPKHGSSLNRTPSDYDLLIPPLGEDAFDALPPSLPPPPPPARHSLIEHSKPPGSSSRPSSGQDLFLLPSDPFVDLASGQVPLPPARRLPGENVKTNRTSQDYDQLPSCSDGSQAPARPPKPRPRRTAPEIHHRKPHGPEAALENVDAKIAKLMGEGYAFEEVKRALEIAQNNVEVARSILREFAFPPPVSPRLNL

| SMILES | Ki (CBL-B protein) [nM] | IL-2 CFC=5/nM [1] [nM] |
| --- | --- | --- |
| C[C@H](NCc1cc2c(C(F)(F)F)cn(-c3cccc(C4(c5nncn5C)CCC4)c3)c(=O)c2[nH]1)C(C)(C)C [Compound T043, (S)-2-(((3,3-dimethylbutan-2-yl)amino)methyl)-6-(3-(1-(4-methyl-4H-1,2,4-triazol-3-yl)cyclobutyl)phenyl)-4-(trifluoromethyl)-1,6-dihydro-7H-pyrrolo[2,3-c]pyridin-7-one] | < 50 | <500 |
| CO[C@H]1C[C@@](c2cccc(-n3cc(C(F)(F)F)c4cc(CNC5(C)CCC5)[nH]c4c3=O)c2)(c2nncn2C)C1 [Compound T067, 6-(3-((1s,3s)-3-methoxy-1-(4-methyl-4H-1,2,4-triazol-3-yl)cyclobutyl)phenyl)-2-(((1-methylcyclobutyl)amino)methyl)-4-(trifluoromethyl)-1,6-dihydro-7H-pyrrolo[2,3-c]pyridin-7-one] | < 50 | <500 |
| CCN(Cc1cc2c(C(F)(F)F)cn(-c3cccc([C@]4(c5nncn5C)C[C@@H](C)C4)c3)c(=O)c2[nH]1)CC(C)C [Compound T069, 2-((ethyl(isobutyl)amino)methyl)-6-(3-((1s,3s)-3-methyl-1-(4-methyl-4H-1,2,4-triazol-3-yl)cyclobutyl)phenyl)-4-(trifluoromethyl)-1,6-dihydro-7H-pyrrolo[2,3-c]pyridin-7-one] | < 50 | <500 |
| C[C@H]1CCCN(Cc2cc3c(C(F)(F)F)cn(-c4cccc(C5(c6nncn6C)CC(F)C5)c4)c(=O)c3[nH]2)C1 (stereo partly drawn) [Compound T070, 6-[3-[3-fluoro-1-(4-methyl-1,2,4-triazol-3-yl)cyclobutyl]phenyl]-2-[[(3S)-3-methyl-1-piperidyl]methyl]-4-(trifluoromethyl)-1H-pyrrolo[2,3-c]pyridin-7-one] | < 50 | <500 |
| C[C@H]1CCCN(Cc2cc3c(C(F)(F)F)cn(-c4cccc([C@]5(c6nncn6C)C[C@@H](F)C5)c4)c(=O)c3[nH]2)C1 [Compound T071, 6-[3-[3-fluoro-1-(4-methyl-1,2,4-triazol-3-yl)cyclobutyl]phenyl]-2-[[(3S)-3-methyl-1-piperidyl]methyl]-4-(trifluoromethyl)-1-H-pyrrolo[2,3-c]pyridin-7-one] | < 50 | <500 |
| C[C@H]1CCCN(Cc2cc3c(C4CC4)cn(-c4cccc(C5(Cc6nncn6C)CC(F)(F)C5)c4)c(=O)c3[nH]2)C1 [Compound T077, 4-cyclopropyl-6-[3-[3,3-difluoro-1-[(4-methyl-1,2,4-triazol-3-yl)methyl]cyclobutyl]phenyl]-2-[[(3S)-3-methyl-1-piperidyl]methyl]-1H-pyrrolo[2,3-c]pyridin-7-one] | < 50 | <500 |
| Cn1cnnc1C1(c2cccc(-n3cc(C(F)(F)F)c4cc(CN5CCC[C@@H](CC#N)C5)[nH]c4c3=O)c2)CCC1 [Compound T080, (S)-2-(1-((6-(3-(1-(4-methyl-4H-1,2,4-triazol-3-yl)cyclobutyl)phenyl)-7-oxo-4-(trifluoromethyl)-6,7-dihydro-1H-pyrrolo[2,3-c]pyridin-2-yl)methyl)piperidin-3-yl)acetonitrile] | < 50 | <500 |
| C[C@H]1CCCN(Cc2cc3c(C(F)(F)F)cn(-c4cccc(C5(c6nncn6C)CC6(CC6)C5)c4)c(=O)c3[nH]2)C1 [Compound T084, 2-[[(3S)-3-methyl-1-piperidyl]methyl]-6-[3-[5-(4-methyl-1,2,4-triazol-3-yl)spiro[2.3]hexan-5-yl]phenyl]-4-(trifluoromethyl)-1H-pyrrolo[2,3-c]pyridin-7-one] | < 50 | <500 |
| CC=C1CC(c2cccc(-n3cc(C(F)(F)F)c4cc(CN5CCC[C@H](C)C5)[nH]c4c3=O)c2)(c2nncn2C)C1 (stereo partly drawn) [Compound T085, 6-[3-[3-ethylidene-1-(4-methyl-1,2,4-triazol-3-yl)cyclobutyl]phenyl]-2-[[(3S)-3-methyl-1-piperidyl]methyl]-4-(trifluoromethyl)-1H-pyrrolo[2,3-c]pyridin-7-one] | < 50 | <500 |
| Cn1cnnc1C1(c2cccc(-n3cc(C(F)(F)F)c4cc(CN5C[C@H]6CCCC[C@H]6C5)[nH]c4c3=O)c2)CCC1 [Compound T086, 2-[[(3aS,7aR)-1,3,3a,4,5,6,7,7a-octahydroisoindol-2-yl]methyl]-6-[3-[1-(4-methyl-1,2,4-triazol-3-yl)cyclobutyl]phenyl]-4-(trifluoromethyl)-1H-pyrrolo[2,3-c]pyridin-7-one] | < 50 | <500 |
| Cn1cnnc1[C@]1(c2cccc(-n3cc(C(F)(F)F)c4cc(CN5C[C@@H]6CC[C@@H](C6)C5)[nH]c4c3=O)c2)C[C@H](C)C1 [Compound T087, 2-((3-azabicyclo[3.2.1]octan-3-yl)methyl)-6-(3-((1s,3s)-3-methyl-1-(4-methyl-4H-1,2,4-triazol-3-yl)cyclobutyl)phenyl)-4-(trifluoromethyl)-1,6-dihydro-7H-pyrrolo[2,3-c]pyridin-7-one] | < 50 | <500 |
| Cn1cnnc1[C@]1(c2cccc(-n3cc(C(F)(F)F)c4cc(CN5CCCC6(CC6)C5)[nH]c4c3=O)c2)C[C@H](C)C1 [Compound T088, 2-((5-azaspiro[2.5]octan-5-yl)methyl)-6-(3-((1s,3s)-3-methyl-1-(4-methyl-4H-1,2,4-triazol-3-yl)cyclobutyl)phenyl)-4-(trifluoromethyl)-1,6-dihydro-7H-pyrrolo[2,3-c]pyridin-7-one] | < 50 | <500 |

The next lines start with results.

| Ki (CBL-B protein) [nM] | SMILES | IL-2 CFC=5/nM [1] [nM] |
| --- | --- | --- |
| < 50 | CCCN(Cc1cc2c(C(F)(F)F)cn(-c3cccc(C4(c5nncn5C)CCC4)c3)c(=O)c2[nH]1)C(C)C [Compound T042, 2-[[isopropyl(propyl)amino]methyl]-6-[3-[1-(4-methyl-1,2,4-triazol-3-yl)cyclobutyl]phenyl]-4-(trifluoromethyl)-1H-pyrrolo[2,3-c]pyridin-7-one] | <500 |
| < 50 | Cn1cnnc1[C@]1(c2cccc(-n3cc(C(F)(F)F)c4cc(CNCCC5CC5)[nH]c4c3=O)c2)C[C@H](C)C1 [Compound T045, 2-(((2-cyclopropylethyl)amino)methyl)-6-(3-((1s,3s)-3-methyl-1-(4-methyl-4H-1,2,4-triazol-3-yl)cyclobutyl)phenyl)-4-(trifluoromethyl)-1,6-dihydro-7H-pyrrolo[2,3-c]pyridin-7-one] | <500 |
| < 50 | Cn1cnnc1[C@]1(c2cccc(-n3cc(C(F)(F)F)c4cc(CN5CC[C@H](F)C5)[nH]c4c3=O)c2)C[C@H](C)C1 [Compound T047, 2-(((S)-3-fluoropyrrolidin-1-yl)methyl)-6-(3-((1s,3R)-3-methyl-1-(4-methyl-4H-1,2,4-triazol-3-yl)cyclobutyl)phenyl)-4-(trifluoromethyl)-1,6-dihydro-7H-pyrrolo[2,3-c]pyridin-7-one] | <500 |
| < 50 | Cn1cnnc1C1(c2cccc(-n3cc(C(F)(F)F)c4cc(CN5CC6CCC(C6)C5)[nH]c4c3=O)c2)CCC1 [Compound T053, 2-(3-azabicyclo[3.2.1]octan-3-ylmethyl)-6-[3-[1-(4-methyl-1,2,4-triazol-3-yl)cyclobutyl]phenyl]-4-(trifluoromethyl)-1H-pyrrolo[2,3-c]pyridin-7-one] | <500 |
| < 50 | Cn1cnnc1C1(c2cccc(-n3cc(C(F)(F)F)c4cc(CN5CCCC6(CC6)C5)[nH]c4c3=O)c2)CCC1 [Compound T054, 2-(5-azaspiro[2.5]octan-5-ylmethyl)-6-[3-[1-(4-methyl-1,2,4-triazol-3-yl)cyclobutyl]phenyl]-4-(trifluoromethyl)-1H-pyrrolo[2,3-c]pyridin-7-one] | <500 |
| < 50 | Cn1cnnc1[C@]1(c2cccc(-n3cc(C(F)(F)F)c4cc(CN5CCC[C@H]6C[C@H]65)[nH]c4c3=O)c2)C[C@H](C)C1 [Compound T055, 2-(((1R,6S)-2-azabicyclo [4.1.0]heptan-2-yl)methyl)-6-(3-((1s,3S)-3-methyl-1-(4-methyl-4H-1,2,4-triazol-3-yl)cyclobutyl)phenyl)-4-(trifluoromethyl)-1,6-dihydro-7H-pyrrolo[2,3-c]pyridin-7-one] | <500 |
| < 50 | Cn1cnnc1[C@]1(c2cccc(-n3cc(C(F)(F)F)c4cc(CN5CCC[C@@H]6C[C@@H]65)[nH]c4c3=O)c2)C[C@H](C)C1 [Compound T056, 2-(((1 S,6R)-2-azabicyclo [4.1.0]heptan-2-yl)methyl)-6-(3-((1s,3R)-3-methyl-1-(4-methyl-4H-1,2,4-triazol-3-yl)cyclobutyl)phenyl)-4-(trifluoromethyl)-1,6-dihydro-7H-pyrrolo[2,3-c]pyridin-7-one] | <500 |
| < 50 | C[C@H]1CCCN(Cc2cc3c(C(F)(F)F)cn(-c4cccc([C@H](c5nncn5C)C5CCC5)c4)c(=O)c3[nH]2)C1 [Compound T060, 6-(3-((R)-cyclobutyl (4-methyl-4H-1,2,4-triazol-3-yl)methyl)phenyl)-2-(((S)-3-methylpiperidin-1-yl)methyl)-4-(trifluoromethyl)-1,6-dihydro-7H-pyrrolo[2,3-c]pyridin-7-one] | <500 |
| < 50 | CO[C@H]1C[C@](c2cccc(-n3cc(C(F)(F)F)c4cc(CNC5(C)CCC5)[nH]c4c3=O)c2)(c2nncn2C)C1 [Compound T066, 6-(3-((1r,3r)-3-methoxy-1-(4-methyl-4H-1,2,4-triazol-3-yl)cyclobutyl)phenyl)-2-(((1-methylcyclobutyl)amino)methyl)-4-(trifluoromethyl)-1,6-dihydro-7H-pyrrolo[2,3-c]pyridin-7-one] | <500 |
